Paper PMC8515607 (ACS Omega, 2021)
Where “and” joins values, the source holds several entries; their conditions need not be identical. Equal values may be shown once. Read-outs that look alike come from different tables or passages of the source.

Columns and labels:
[1] = tested on: A549, MCF-7, and LoVo cells; assay: Antiproliferative activity, values quoted jointly for three tumor lines; assay type: cell-based, human; conditions: summary of Table 1; for IC50: Homo sapiens, read-out: IC50 against A549, MCF-7, and LoVo cells (span over the three lines)
Source text: (§1) The A549 and MCF7 cell lines were purchased from the European Collection of Authenticated Cell Cultures (ECACC, Salisbury, U.K., 86012804 and 86012803). The LoVo cell line was purchased from the American Type Culture Collection (CCL-229, ATCC, Manassas, VA), and LoVo/DX by courtesy of Prof. E. Borowski (Technical University of Gdańsk, Gdańsk, Poland). The BALB/3T3 cell line was purchased from the American Type Culture Collection (CCL-163, ATCC, Manassas, VA). All of the cell lines are maintained in the Institute of Immunology and Experimental Therapy (IIET), Wroclaw, Poland.
(§2) A549 cells were cultured in a mixture of OptiMEM and Roswell Park Memorial Institute (RPMI) 1640 (1:1) medium (IIET, Wroclaw, Poland), supplemented with 10% fetal bovine serum HyClone (GE Healthcare) and 2 mM L-glutamine (Sigma-Aldrich, Germany). MCF7 cells were cultured in a mixture of Eagle’s medium (IIET, Wroclaw, Poland), supplemented with 10% fetal bovine serum, 2 mM L-glutamine, and insulin (Sigma-Aldrich, Germany). LoVo and LoVo/DX cells were cultured in F12K medium (Corning), supplemented with 10% fetal bovine serum HyClone (GE Healthcare) and 0.1 μg/mL doxorubicin (Accord) for LoVo/DX. BALB/3T3 fibroblasts were cultured in Dulbecco’s medium (Gibco), supplemented with 10% fetal bovine serum (GE Healthcare) and 2 mM L-glutamine (Sigma-Aldrich, Germany). All culture media contained antibiotics: 100 U/mL penicillin (Polfa-Tarchomin, Poland) and 0.1 mg/mL streptomycin (Sigma-Aldrich, Germany). All cell lines were cultured during entire experiment in humid atmosphere at 37 °C and 5% CO2.
(§3) All cell lines were exposed to each tested agent at different concentrations in the range 100–0.00001 μg/mL for 72 h. The cells were also exposed to the reference drug cisplatin (Teva Pharmaceuticals, Poland) and doxorubicin (Accord Healthcare Limited, U.K.). Additionally, all cell lines were exposed to dimethyl sulfoxide (DMSO) (solvent used for tested compounds) (POCh, Poland) at concentrations corresponding to those present in tested agents dilutions. After 72 h, sulforhodamine B (SRB) assay was performed.[57]
(§4) After 72 h of incubation with the tested compounds, the cells were fixed in situ by gently adding cold 50% trichloroacetic acid (TCA) (POCh, Poland) and were incubated at room temperature for 1 h. Then, the wells were washed four times with water and air-dried. Next, 0.1% solution of sulforhodamine B (Sigma-Aldrich, Germany) in 1% acetic acid (POCh, Poland) was added to each well and the plates were incubated at room temperature for 0.5 h. After incubation time, unbound dye was removed by washing plates four times with 1% acetic acid, whereas stain bound to cells was solubilized with 10 mM Tris base (Sigma-Aldrich, Germany). Absorbance of each solution was read at Synergy H4 Hybrid Multi-Mode Microplate Reader (BioTek Instruments) at the 540 nm wavelength.
(§5) IC50 values were calculated in Excel sheet using formulas adapted by Mateusz Psurski fromCheburator 0.4, Dmitry Nevozhay software (version 1.2.0 software by Dmitry Nevozhay, 2004–2014, http://www.cheburator.nevozhay.com, freely available) for each experiment.[58] Compounds at each concentration were tested in triplicate in a single experiment, and each experiment was repeated at least three times independently.

BALB/3T3 = assay: In vitro antiproliferative activity, SRB assay, normal fibroblasts BALB/3T3; assay type: cell-based; conditions: 72 h, mean ± SD
Source text: as §1, §2, §3, §4, §5

A549 = assay: cells; assay type: cell-based, human; conditions: for A549 SI: selectivity index = IC50 BALB/3T3 / IC50 A549
Source text: as §1, §2, §3, §4, §5

LoVo/DX = assay: cells; assay type: cell-based, human; conditions: for LoVo/DX RI: resistance index = IC50 LoVo/DX / IC50 LoVo; for LoVo/DX SI: selectivity index = IC50 BALB/3T3 / IC50 LoVo/DX
Source text: as §1, §2, §3, §4, §5

LoVo = assay: cells; assay type: cell-based, human; conditions: for LoVo SI: selectivity index = IC50 BALB/3T3 / IC50 LoVo
Source text: as §1, §2, §3, §4, §5

MCF-7 = assay: cells; assay type: cell-based, human; conditions: for MCF-7 SI: selectivity index = IC50 BALB/3T3 / IC50 MCF-7
Source text: as §1, §2, §3, §4, §5

[2] = Mus musculus, BALB/3T3, normal murine embryonic fibroblasts
[3] = Homo sapiens, A549, 72 h, read-out: A549 IC50 (nM), 72 h exposure, SRB, mean ± SD
[4] = Homo sapiens, LoVo/DX, 72 h, read-out: LoVo/DX IC50 (nM), 72 h exposure, SRB, mean ± SD
[5] = Homo sapiens, LoVo, 72 h, read-out: LoVo IC50 (nM)
[6] = Homo sapiens, MCF7, 72 h, read-out: MCF-7 IC50 (nM)
[7] = read-out: A549 IC50, 72 h exposure, SRB, mean ± SD

Row | Structure (SMILES) | IC50 [1] [nM] | IC50 (BALB/3T3; [2]) [nM] | IC50 (A549; [3]) [nM] | A549 SI (A549) | IC50 (LoVo/DX; [4]) [nM] | LoVo/DX RI (LoVo/DX) | LoVo/DX SI (LoVo/DX) | IC50 (LoVo; [5]) [nM] | LoVo SI (LoVo) | IC50 (MCF-7; [6]) [nM] | MCF-7 SI (MCF-7) | SI for A549, MCF-7, and LoVo cells (span) [1] | IC50 (A549; [7]) [nM] | IC50 (LoVo/DX; read-out: LoVo/DX IC50, 72 h exposure, SRB, mean ± SD) [nM] | IC50 (BALB/3T3; normal murine embryonic fibroblasts) [nM] | IC50 (A549; 72 h exposure, SRB, mean ± SD, read-out: A549 IC50) [nM] | IC50 (LoVo/DX; 72 h exposure, SRB, mean ± SD, read-out: LoVo/DX IC50) [nM] | IC50 (LoVo; 72 h exposure, SRB, mean ± SD, read-out: LoVo IC50) [nM] | IC50 (MCF-7; 72 h exposure, SRB, mean ± SD, read-out: MCF-7 IC50) [nM]
1 | CNc1ccc2c(cc1=O)[C@@H](n1cc(CN)nn1)CCc1cc(OC)c(OC)c(OC)c1-2 [Compound 8] | 30 to 140 | 400 ± 37 | 70 ± 23 | 5.7 | 12000 ± 2400 | 86 | <0.1 | 140 ± 56 | 2.9 | 34 ± 16 | 11.8 | – | – | – | – | – | – | – | –
2 | CNc1ccc2c(cc1=O)[C@@H](n1cc(CNC(=O)OCC(C)C)nn1)CCc1cc(OC)c(OC)c(OC)c1-2 [Compound 40] | 1.2 to 1.7 | 3.9 ± 0.2 | 1.2 to 1.9 | 3.3 | 310 ± 61 | 180 | <0.1 | 1.7 ± 0.2 | 2.3 | 1.2 ± 0.3 | 3.3 | 2.1–3.9 | 1.2 ± 0.1 | – | – | – | – | – | –
3 | CNc1ccc2c(cc1=O)[C@@H](n1cc(CCO)nn1)CCc1cc(OC)c(OC)c(OC)c1-2 [Compound 11] | – | 18 ± 7.1 | 14 ± 2 | 1.3 | 1700 ± 290 | 120 | <0.1 | 14 ± 6.5 | 1.3 | 13 ± 1.6 | 1.4 | – | – | – | – | – | – | – | –
4 | CNc1ccc2c(cc1=O)[C@@H](n1cc(CNC(=O)OC)nn1)CCc1cc(OC)c(OC)c(OC)c1-2 [Compound 37] | – | 14 ± 2.4 | 7.2 ± 0.7 | 1.9 | 1500 ± 240 | 180 | <0.1 | 8.5 ± 2.3 | 1.6 | 4.7 ± 0.5 | 3.0 | – | – | – | – | – | – | – | –
5 | CNc1ccc2c(cc1=O)[C@@H](n1cc(CNC(=O)OCC(Cl)(Cl)Cl)nn1)CCc1cc(OC)c(OC)c(OC)c1-2 [Compound 42] | – | 2.7 ± 2.4 | 1.2 to 1.9 | 1.4 | 470 ± 300 | 120 | <0.1 | 3.8 ± 4.2 | 0.7 | 2.5 ± 1.8 | 1.1 | – | 1.9 ± 2.9 | – | – | – | – | – | –
6 | CNc1ccc2c(cc1=O)[C@@H](n1cc(COC(=O)c3ccccc3Cl)nn1)CCc1cc(OC)c(OC)c(OC)c1-2 [Compound 27] | – | 8.7 ± 2 | 2.9 ± 0.6 | 3.0 | < 100 | 19 | 0.1 | 4.7 ± 1.7 | 1.9 | 2.4 ± 0.8 | 3.6 | – | – | 89 ± 18 | – | – | – | – | –
7 | CNc1ccc2c(cc1=O)[C@@H](n1cc(COC(=O)c3ccncc3)nn1)CCc1cc(OC)c(OC)c(OC)c1-2 [Compound 28] | – | 12 ± 1.1 | 9.5 ± 2.9 | 1.3 | 1000 ± 94 | 130 | <0.1 | 7.9 ± 3.3 | 1.5 | 3.9 ± 1.1 | 3.1 | – | – | – | – | – | – | – | –
8 | CNc1ccc2c(cc1=O)[C@@H](n1nnc(C(=O)O)c1C(=O)O)CCc1cc(OC)c(OC)c(OC)c1-2 [Compound 23] | – | 1200 ± 14 | 1000 ± 240 | 1.2 | 2900 ± 390 | 3.4 | 0.4 | 860 ± 190 | 1.4 | 990 ± 82 | 1.2 | – | – | – | – | – | – | – | –
9 | CCCCCCCCCCCCCCCC(=O)OCc1cn([C@H]2CCc3cc(OC)c(OC)c(OC)c3-c3ccc(NC)c(=O)cc32)nn1 [Compound 24] | – | 54 ± 20 | 16 ± 5.2 | 3.4 | 3300 ± 280 | 170 | <0.1 | 19 ± 7 | 2.8 | 11 ± 0.7 | 4.9 | – | – | – | – | – | – | – | –
10 | CNc1ccc2c(cc1=O)[C@@H](n1cc(COC(=O)CCNC(=O)OC(C)(C)C)nn1)CCc1cc(OC)c(OC)c(OC)c1-2 [Compound 26] | – | 6.4 ± 1.4 | 2.4 ± 0.7 | 2.7 | 700 ± 120 | 240 | <0.1 | 2.9 ± 1.2 | 2.2 | 1.1 ± 0.1 | 5.8 | – | – | – | – | – | – | – | –
11 | CNc1ccc2c(cc1=O)[C@@H](n1cc(C(C)(C)O)nn1)CCc1cc(OC)c(OC)c(OC)c1-2 [Compound 12] | – | 50 ± 4.5 | 37 ± 4.2 | 1.4 | 2400 ± 550 | 130 | <0.1 | 19 ± 3.9 | 2.6 | 13 ± 3.4 | 3.8 | – | – | – | – | – | – | – | –
12 | CCCc1cn([C@H]2CCc3cc(OC)c(OC)c(OC)c3-c3ccc(NC)c(=O)cc32)nn1 [Compound 6] | – | 24 ± 9.3 | 15 ± 3.7 | 1.6 | 85 ± 21 | 6.5 | 0.3 | 13 ± 1.9 | 1.8 | 11 ± 1.2 | 2.2 | – | – | – | – | – | – | – | –
13 | CNc1ccc2c(cc1=O)[C@@H](n1cc(CNC(=O)CCNC(=O)OC(C)(C)C)nn1)CCc1cc(OC)c(OC)c(OC)c1-2 [Compound 34] | – | 270 ± 67 | 26 ± 11 | 10.4 | 17000 ± 1600 | 510 | <0.1 | 33 ± 10 | 8.2 | 10 ± 2.1 | 27.0 | – | – | – | – | – | – | – | –
14 | N.N.[Cl][Pt][Cl] [cisplatin, reference compound] | – | – | – | 0.9 | – | 0.7 | 1.1 | – | 0.8 | – | 0.8 | – | – | – | 3300 ± 970 | 3500 ± 630 | 3000 ± 800 | 4100 ± 860 | 4400 ± 1200
15 | CNc1ccc2c(cc1=O)[C@@H](n1cc(CNC(=O)c3ccncc3)nn1)CCc1cc(OC)c(OC)c(OC)c1-2 [Compound 36] | – | 74 ± 22 | 22 ± 7.4 | 3.4 | 9100 ± 790 | 700 | <0.1 | 13 ± 3.4 | 5.7 | 12 ± 1.4 | 6.3 and 6.2 | – | – | – | – | – | – | – | –
16 | CCOC(=O)c1nnn([C@H]2CCc3cc(OC)c(OC)c(OC)c3-c3ccc(NC)c(=O)cc32)c1C(=O)OCC [Compound 22] | 70 to 100 | – | 72 ± 27 | 1.5 | 580 ± 120 | 6.0 | 0.2 | 97 ± 24 | 1.1 | 93 ± 43 | 1.2 | – | – | – | – | – | – | – | –
